In publication PMC8885417, “Pharmacological targeting of MTHFD2 suppresses acute myeloid leukemia by inducing thymidine depletion and replication stress” (Nature Cancer, 2022):
Where two headings read alike, the source gives them in different places.

Experiments:
MTHFD2L = MTHFD2L (Homo sapiens, UniProt Q9H903); test: biochemical activity assay
MTHFD2 = MTHFD2 (Homo sapiens, UniProt P13995); test: cocrystal structure with NAD+; enzymatic IC50; CETSA; type: biochemical
MTHFD1-(DC) = target: T1, MTHFD1-(DC) (Homo sapiens, UniProt P11586); test: biochemical activity assay
T1 construct: dehydrogenase/cyclohydrolase (DC) domain
T1 sequence (P11586 2-306 limits assumed): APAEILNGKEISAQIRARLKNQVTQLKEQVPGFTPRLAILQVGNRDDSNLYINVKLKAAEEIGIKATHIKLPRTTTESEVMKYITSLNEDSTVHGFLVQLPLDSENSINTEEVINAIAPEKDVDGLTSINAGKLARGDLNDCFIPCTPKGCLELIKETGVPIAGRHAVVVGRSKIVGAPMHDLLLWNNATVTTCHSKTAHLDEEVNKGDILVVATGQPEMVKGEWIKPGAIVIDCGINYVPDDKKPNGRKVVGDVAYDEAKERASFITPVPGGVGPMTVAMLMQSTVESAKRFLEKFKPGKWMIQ

MTHFD2L, sequence (Q9H903 whole entry): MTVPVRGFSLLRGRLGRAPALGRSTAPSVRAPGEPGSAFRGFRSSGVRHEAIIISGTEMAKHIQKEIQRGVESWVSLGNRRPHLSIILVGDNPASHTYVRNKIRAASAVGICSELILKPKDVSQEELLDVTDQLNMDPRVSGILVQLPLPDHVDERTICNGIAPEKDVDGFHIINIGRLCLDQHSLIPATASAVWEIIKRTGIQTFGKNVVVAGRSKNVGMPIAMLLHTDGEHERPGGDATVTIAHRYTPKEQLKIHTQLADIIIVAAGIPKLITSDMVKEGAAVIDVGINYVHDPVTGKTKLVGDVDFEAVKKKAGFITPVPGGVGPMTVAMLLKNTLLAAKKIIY
MTHFD2, sequence (P13995 36-350): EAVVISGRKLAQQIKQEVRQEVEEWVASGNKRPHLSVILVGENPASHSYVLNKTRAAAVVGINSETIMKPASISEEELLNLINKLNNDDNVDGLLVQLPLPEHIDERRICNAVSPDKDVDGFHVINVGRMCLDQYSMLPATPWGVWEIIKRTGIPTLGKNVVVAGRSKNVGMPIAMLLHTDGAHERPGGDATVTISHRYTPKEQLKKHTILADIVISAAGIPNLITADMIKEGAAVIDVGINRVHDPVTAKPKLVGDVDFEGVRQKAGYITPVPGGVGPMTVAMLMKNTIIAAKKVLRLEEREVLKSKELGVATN

IC50 (MTHFD2L; read-out: MTHFD2L IC50) [nM] | IC50 (MTHFD2) [nM] | IC50 (MTHFD1-(DC)) [nM] | Compound | IC50 (MTHFD2L) [nM]
27 | 11 | 0.5 | TH9028 | 
 |  |  | Nc1nc(N)c(NC(=O)Nc2ccc(C(=O)N[C@@H](CCC(=O)O)C(=O)O)cc2)c(=O)[nH]1 [TH7299] | 126
